In patent US11458132B2, “Quinolin-2(1H)-one inhibitors of Late SV40 Factor” (TRUSTEES OF BOSTON UNIVERSITY, priority 2020, dated 2022):

Test system: colorectal cancer tumor
Assay: Colorectal cancer tumor size and tumor tissue, FIGS. 22-24
Format: in vivo, mouse
Conditions: treated versus control

CC(C)COc1cc(N(C)C)ccc1C1CC(=O)Nc2cc3c(cc21)OCO3 (stereo not shown) [FQI-234, 8-(4-(dimethylamino)-2-isobutoxyphenyl)-7,8-dihydro-[1,3]dioxolo[4,5-g]quinolin-6(5H)-one]
stained tumor tissue, microscope images: more organized, interstitium and differentiated tumor
